Measurements taken from patent US8952024B2, “Herbicidal pyrimidone derivatives” (E I du Pont de Nemours and Company, priority 2009, dated 2015).

Key:
Assay type in all cases: in vivo
[1] = system: bluegrass (annual bluegrass, Poa annua); assay: Test C plant response; details: Postemergence, scale 0 to 100
How it was run: (§1)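 Formulation: non-phytotoxic solvent + surfactant. Controlled growth environment, 14 d. Visual rating vs controls, 0 = no effect, 100 = complete control; dash = no result.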

[2] = system: bromegrass (downy bromegrass, Bromus tectorum); assay: Test C plant response; details: Postemergence, scale 0 to 100
How it was run: as §1

[3] = system: chickweed (common chickweed, Stellaria media); assay: Test C plant response; details: Postemergence, scale 0 to 100
How it was run: as §1

[4] = system: green foxtail (Setaria viridis); assay: Test C plant response; details: Postemergence, scale 0 to 100
How it was run: as §1

[5] = system: kochia (Kochia scoparia); assay: Test C plant response; details: Postemergence, scale 0 to 100
How it was run: as §1

[6] = system: lambsquarters (Chenopodium album); assay: Test C plant response; details: Postemergence, scale 0 to 100
How it was run: as §1

[7] = system: oilseed rape (Brassica napus); assay: Test C plant response; details: Postemergence, scale 0 to 100
How it was run: as §1

[8] = system: pigweed (Amaranthus retroflexus); assay: Test C plant response; details: Postemergence, scale 0 to 100
How it was run: as §1

[9] = system: spring barley (Hordeum vulgare); assay: Test C plant response; details: Postemergence, scale 0 to 100
How it was run: as §1

[10] = system: wild mustard (Sinapis arvensis); assay: Test C plant response; details: Postemergence, scale 0 to 100
How it was run: as §1

[11] = system: wild oat (Avena fatua); assay: Test C plant response; details: Postemergence, scale 0 to 100
How it was run: as §1

[12] = system: windgrass (Apera spica-venti); assay: Test C plant response; details: Postemergence, scale 0 to 100
How it was run: as §1

[13] = system: barnyardgrass (Echinochloa crus-galli); assay: Test E flooded paddy rice and weeds; details: applied to paddy water, 21 days
How it was run: (§2)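 Visual ratings (0 = no effect, 100 = complete control), taken 21 days after treatment against untreated pots. Treatment was by application to paddy water kept 3 cm above the soil, at the 2.0 to 2.5-leaf stage. Grown under 30/27° C, 16-hour photoperiod.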

[14] = system: early watergrass (Echinochloa oryzoides); assay: Test E flooded paddy rice and weeds; details: applied to paddy water, 21 days, scale 0 to 100
How it was run: as §2

[15] = system: flatsedge (rice flatsedge, Cyperus iria); assay: Test E flooded paddy rice and weeds; details: applied to paddy water, 21 days, scale 0 to 100
How it was run: as §2

[16] = system: junglerice (Echinochloa colona); assay: Test E flooded paddy rice and weeds; details: applied to paddy water, 21 days, scale 0 to 100
How it was run: as §2

[17] = system: late watergrass (Echinochloa oryzicola); assay: Test E flooded paddy rice and weeds; details: applied to paddy water, 21 days, scale 0 to 100
How it was run: as §2

[18] = system: redstem (purple redstem, Ammannia coccinea); assay: Test E flooded paddy rice and weeds; details: applied to paddy water, 21 days, scale 0 to 100
How it was run: as §2

COc1ccc(-n2c(-c3ccccc3)ncc(C(=O)C3=C(O)CCCC3=O)c2=O)cc1 [Compound 4, 5-[(2-hydroxy-6-oxo-cyclohexen-1-yl)carbonyl]-3-(4-methoxyphenyl)-2-phenyl-4(3H)-pyrimidinone]
Plant response rating: Bluegrass ([1]; 31 g ai/ha): 35 | Plant response rating: Bluegrass ([1]; 125 g ai/ha): 50 | Plant response rating: Bromegrass, Downy ([2]; 31 g ai/ha): 35 | Plant response rating: Bromegrass, Downy ([2]; 125 g ai/ha): 40 | Plant response rating: Chickweed ([3]; 31 g ai/ha): 98 | Plant response rating: Chickweed ([3]; 125 g ai/ha): 100 | Plant response rating: Foxtail, Green ([4]; 31 g ai/ha): 70 | Plant response rating: Foxtail, Green ([4]; 125 g ai/ha): 95 | Plant response rating: Kochia ([5]; 31 g ai/ha): 90 | Plant response rating: Kochia ([5]; 125 g ai/ha): 95 | Plant response rating: Lambsquarters ([6]; 31 g ai/ha): 100 | Plant response rating: Lambsquarters ([6]; 125 g ai/ha): 100 | Plant response rating: Oilseed Rape ([7]; 31 g ai/ha): 90 | Plant response rating: Oilseed Rape ([7]; 125 g ai/ha): 100 | Plant response rating: Pigweed ([8]; 31 g ai/ha): 95 | Plant response rating: Pigweed ([8]; 125 g ai/ha): 100 | Plant response rating: Barley, Spring ([9]; 31 g ai/ha): 10 | Plant response rating: Barley, Spring ([9]; 125 g ai/ha): 15 | Plant response rating: Mustard, Wild ([10]; 31 g ai/ha): 98 | Plant response rating: Mustard, Wild ([10]; 125 g ai/ha): 100 | Plant response rating: Oat, Wild ([11]; 31 g ai/ha): 20 | Plant response rating: Oat, Wild ([11]; 125 g ai/ha): 50 | Plant response rating: Windgrass ([12]; 31 g ai/ha): 35 | Plant response rating: Windgrass ([12]; 125 g ai/ha): 95 | Plant response rating, Barnyardgrass, Flood ([13]; 125 g ai/ha, scale 0 to 100): 0 | Plant response rating, Barnyardgrass, Flood ([13]; 250 g ai/ha, scale 0 to 100): 60 | Plant response rating, Barnyardgrass, Flood ([13]; 500 g ai/ha, scale 0 to 100 (0 no effect, 100 complete control)): 60 | Plant response rating, Watergrass, Early, Flood ([14]; 125 g ai/ha): 0 | Plant response rating, Watergrass, Early, Flood ([14]; 250 g ai/ha): 60 | Plant response rating, Watergrass, Early, Flood ([14]; 500 g ai/ha): 65 | Plant response rating, Flatsedge, Rice, Flood ([15]; 125 g ai/ha): 0 | Plant response rating, Flatsedge, Rice, Flood ([15]; 250 g ai/ha): 40 | Plant response rating, Flatsedge, Rice, Flood ([15]; 500 g ai/ha): 90 | Plant response rating, Junglerice, Flood ([16]; 125 g ai/ha): 0 | Plant response rating, Junglerice, Flood ([16]; 250 g ai/ha): 25 | Plant response rating, Junglerice, Flood ([16]; 500 g ai/ha): 50 | Plant response rating, Watergrass, Late, Flood ([17]; 125 g ai/ha): 0 | Plant response rating, Watergrass, Late, Flood ([17]; 250 g ai/ha): 15 | Plant response rating, Watergrass, Late, Flood ([17]; 500 g ai/ha): 60 | Plant response rating, Redstem, Flood ([18]; 125 g ai/ha): 80 | Plant response rating, Redstem, Flood ([18]; 250 g ai/ha): 80 | Plant response rating, Redstem, Flood ([18]; 500 g ai/ha): 85
